The record followed here is patent publication US6235891A, “Glucocorticoid receptor agonist and decreased PP5” (South Alabama Medical Science Foundation, priority 1999, dated 2001).

For data set [1], the system named is glucocorticoid receptor (GR) binding to DNA. As to the kind of experiment: Gel mobility shift assay of GR binding to GRE DNA, A549 nuclear extracts. The class given is cell-based, human. The settings on record: 300 nM ISIS 15534 compared with 1 μM dexamethasone. On the procedure:
Nuclear extracts and gel mobility shift assays were conducted as previously described (Li et al. 1991) with slight modifications (Zuo et al. 1998). Briefly, A549 cells were cultured in 60 mm dishes and treated with ISIS 15521 or ISIS 15534 antisense oligonucleotides (Zuo et al. 1998) three dishes per group. Six hours after treatment, the cells were collected, washed with ice-cold PBS, and incubated in buffer A (10 mM HEPES, pH 7.9, 10 mM KCl, 0.1 mM EDTA, 0.1 mM EGTA, 1 mM DTT, 0.5 mM PMSF) at 4° C. for 15 minutes. The cells were then lysed by adding 25 μl 10% NP-40 and vigorous vortexing for 10 seconds. Nuclei were precipitated by centrifugation, resuspended in ice-cold buffer B (20 mM HEPES, pH 7.9, 0.4 M NaCl, 1 mM EDTA, 1 mM EGTA, 1 mM DTT, 1 mM PMSF), incubated at 4° C. for 60 minutes with gentle shaking, and then subjected to centrifugation at 4° C. for 5 minutes. The supernatant was collected, aliquoted, and stored at -80° C. […]
Referring to FIG. 3A, the inhibition of PP5 expression enhances glucocorticoid receptor binding to DNA. […] The relative light units of the cell extract were calculated as an average of three independent experiments, performed in triplicate, and presented as relative luciferase activity with error bars indicating SD. […]

For another data set, the system named is A549 cells. As to the kind of experiment: [3H]-thymidine incorporation (DNA synthesis) in A549 cells. The class given is cell-based, human. To be noted: 300 nM. The procedure:
Cells were pulse-labeled with [^3 H]-thymidine for 5 hours at intervals over the next five days. Cells were lysed and [^3 H]-thymidine incorporation (indicative of DNA synthesis) was determined by liquid scintillation counting.
At timed intervals during the next 5 days, cells were pulse-labeled with [^3 H]-thymidine (0.5 μCi/ml) for 5 hours. […] The results given are the mean of three independent experiments.
In general terms: Uptake of a labelled nucleoside into DNA is a usual measure of proliferation.

As for “ISIS 15534: chimeric PP5 antisense oligonucleotide, P=O wings, P=S deoxy gap; GGGCCCTATTGCTTGAGTGG, SEQ ID NO: 12 (sugars by position and backbone not given here; chimeric, phosphodiester wings, phosphorothioate deoxy gap)”, the GR/GRE gel shift entry in data set [1] is “more pronounced shift”. The “Decrease in [3H]-thymidine incorporation compared to control” value is recorded as “approximately 85%” in the data set on A549 cells (day 2), approximately 88% with A549 cells (day 3) and approximately 62% in the data set on A549 cells (day 4). Further, the “[3H]-thymidine incorporation relative to untreated cells” value in the data set with A549 cells (day 5) is “approximately equivalent in treated and untreated cells”.
